Measurements reported in paper PMC8901748, “A novel prostaglandin E receptor 4 (EP4) small molecule antagonist induces articular cartilage regeneration” (Cell Discovery, 2022).

How the values were obtained:
[1] = test system: zebrafish embryos; assay: Zebrafish embryo toxicity assay; design: Mortality / Deformities / Hatching: dose or concentration left out as unconfirmed; conditions: for Mortality: zebrafish embryos; for Deformities / Hatching: zebrafish
Procedure: A breeding stock of zebrafish at the age of 6–24 months is used for egg production. Fertilized eggs were collected and viable eggs were transferred to the 12-well plate at 26 °C. Fertilized eggs between the 4-cell and 128-cell stages be used for the toxicity test, with ten fertilized eggs per concentration and three replicates of each concentration, a total of 30 eggs for each concentration. […] DMSO was added as vehicle control. Hatching, morphological abnormalities and survival were assessed 24 and 72 h of post-fertilization (dpf) in zebrafish exposed to the chemicals.

[2] = test system: articular cartilage defect; assay: DMM surgery-induced CD mouse model; format: in vivo, mice (strain C57/BL/6); conditions: Grapiprant 30 mg/kg, HL-43 10 mg/kg, compared to vehicle
Source text: EP4^f/f mice[67] were crossed with the Col2-cre strain to generate Col2-cre; EP4^f/f (EP4^Col2) mice, or were crossed with Aggrecan-creERT2[68] mice to generate EP4^f/f; Aggrecan-CreERT2 (EP4^AcanERT2) mice. Mice were maintained at the animal center of East China Normal University. All mouse experiments were approved by Ethics Committee at East China Normal University. Mice of the same genetic background were generated and raised under identical conditions. Sex-matched littermate mice were compared. For the DMM surgery-induced CD mouse model, WT mice (strain C57/BL/6) or EP4^Acan mice were used, n = 5 for each group. DMM surgery was carried out as previous described using 10-week-old male mice[69],[70]; while Sham-operated mice were used as controls. Knee joints were collected for histological analysis 6 or 8 weeks after surgery. Osteoarthritis Research Society International (OARSI) histopathology grading system was used to evaluate the sections, six sections of the articular cartilage of each mouse were evaluated. Synovitis was assessed by the synovitis score. Therapy with oral EP4 inhibitors was initiated one day after surgery and continued for 8 weeks, n = 8 for each group. EP4 inhibitors and Celecoxib were dissolved in carboxymethylcellulose sodium which is prepared at the concentration of 0.5%, and vehicle contained carboxymethylcellulose sodium alone. The vehicle, Celecoxib, Grapiprant, and HL-43 were delivered to mice at indicated doses daily by gavage, Celecoxib purchased from damas-beta (29322B), Grapiprant was purchased from Yuduobio, Shanghai, all other EP4 antagonists were synthesized by Dr. Hankun Zhang’s lab.
Von Frey nylon filaments were used to test the hind-paw reflex sensitivity to punctate static mechanical stimuli. Mice were habituated to the wire mesh bottom cages for 30 min before the test. von Frey filaments (Aesthesio von Frey Kit, Ugo Basile, Varese, Italy) were applied from underneath the mouse in ascending order to the mid-plantar surface of the hind paws. If withdrawal response was not induced, the next level of von Frey hair was applied until at least six withdrawals occurred in ten stimuli. This minimal force required to elicit 50% positive response was recorded as the paw withdrawal threshold[73],[74].
The paw withdrawal latency (PWL) and threshold (PWT) of thermal hyperalgesia were measured using the Ugo-Basile 37370 plantar test (Comerio, Italy). The mice were placed on a glass plate of constant temperature for 30 min before each test. Thermal thresholds of the ipsilateral hind paws were assessed three times with a 10 min interval between trials. The time(s) from irradiation to paw withdrawal was recorded as the thermal withdrawal latency. […]

[3] = test system: articular cartilage defect; assay: Microfracture (MF) surgery-induced cartilage defect (CD) rat model; format: in vivo, Sprague-Dawley (SD) rats; conditions: hydrogel containing compound; for Cartilage regeneration, appearance of the defect: 6 weeks of post-surgery
Procedure: Ca(NO3)2·4H2O was obtained from Sinopharm Chemical Reagent. Waxy starch (amylopectin more than 90%) was purchased from Qinhuangdao Lihua Starch. For the preparation of starch hydrogels, a fixed water-to-starch mass ratio of 5 was used, and the crosslinker Ca(NO3)2·4H2O was dissolved in the starch solution. The mixture was stirred at 60 °C for 1 h to obtain a viscous gel. The starch hydrogel prepared with Ca(NO3)2·4H2O and Waxy starch was named as 14 Gel. The hydrogel is sterilized by UV for 30 min and then used. HL-43 and Grapiprant were each dissolved in the DMSO solvent (100 mM). Compound/14 Gel was prepared by mixing the solutions at a weight ratio of 1/10 (w/w).
Thirty-six male Sprague-Dawley (SD) rats (280–300 g) were randomized into three groups (each group n = 4 rats for each time point), […] were used as controls (n = 4). After anesthetizing with 3.5% chloral hydrate (10 ml/kg), the rats were fixed on the operating table in supine position and the skin was prepared and disinfected. A 2 cm longitudinal incision along the medial margin of the patella of the right knee was made with a scalpel and then the capsule was open to expose the articular cartilage surface. A manual drill with a diameter of 2 mm was used to drill holes in the femoral intercondylar fossa of the rat (2 mm × 2 mm). After washing with saline, the gauze was pressed and 100 μl 14 Gel containing appropriate drugs or vehicle were injected. After the injection, the compression flexes and compresses were applied several times to spread the gel throughout the knee joint. The ligaments and skin were sutured. After 2, 4, and 6 weeks, the repaired articular cartilage was histologically analyzed and correlation was scored.

[4] = 72 hpf, in comparison to Celecoxib and Grapiprant

Row | SMILES | Mortality ([1]; 24hpf, 0.3, n=30) | Mortality ([1]; 24hpf, 1, n=30) | Mortality ([1]; 24hpf, 3, n=30) | Deformities ([1]; 72hpf, 0.3, n=30) | Hatching ([1]; 72hpf, 0.3, n=30) | Deformities ([1]; 72hpf, 1, n=30) | Hatching ([1]; 72hpf, 1, n=30) | Deformities ([1]; 72hpf, 3, n=30) | Hatching ([1]; 72hpf, 3, n=30) | Expression of Col2, Acan, and Sox9 in knee joint [2] | Expression of Mmp13 and ColX in knee joint [2] | Cartilage regeneration, appearance of the defect [3] | Mortality rate, ranking ([1]; 24 hpf, in comparison to Celecoxib and Grapiprant) | Deformities rate, ranking [1, 4] | Hatching rate, ranking [1, 4] | Cartilage repair, ICRS Macroscopic and ICRS Visual Histological scores ([3]; 4 weeks after MF surgery)
1 | CCc1nc2c(C)nc(C)cc2n1-c1ccc(CCNC(=O)NS(=O)(=O)c2ccc(C)cc2)cc1 [Grapiprant] | 4/30 | 14/30 | 13/30 | 4/30 | 24/30 | 3/30 | 16/30 | 4/30 | 17/30 | increased | decreased | still visible | – | – | – | –
2 | C[C@H](NC(=O)c1c(-c2ccccc2)nnn1CCOc1ccc(F)cc1)c1ccc(C(=O)O)cc1 [HL-43] | 0/30 | 3/30 | 6/30 | 2/30 | 28/30 | 2/30 | 26/30 | 4/30 | 23/30 | increased | decreased | surfaces were smooth and cartilage layers were regenerated | lowest mortality rate | lowest deformities rate | highest hatching rate | mild effects on cartilage repair
